How the values were obtained:
[1] = Adverse effect on kidneys; conditions: in vivo
[2] = Dissolution of TT001 in I.V. formulation vehicle; format: physicochemical; conditions: 0.1 to 10 mg/ml in 40% w/v HPβCD solution in water for injection; a couple of hours for complete dissolution
Procedure: Formulation Method for the Preparation of TT001 for I.V. Dosing, 0.1 to 10 mg/ml
The formulation method is applicable at concentrations in formulation between 0.1 and 10 mg/mL corresponding to 0.262 and 26.2 μmol/mL
Preparation of 40% w/v HPβCD solution in water for injection
Excipients Hydroxypropyl-β-cyclodextrin, Kleptose, Roquette (HPβCD) 400 mg (40% w/v)
Water for injection to 1 ml (1.13 g)
Preparation of TT001 I.V. formulations between 0.1 and 10 mg/ml
Vehicle (40% w/v HPβCD solution in water for injection) to 1 ml (1.13 g)

[3] = cited from earlier work
[4] = tested on: pain in dogs with chronic osteoarthritis; conditions: cited from earlier work

C[C@@H](Oc1nnc(-c2ccncc2)n1C)c1cc(-c2cccc(Cl)c2)on1 [TT001, 4-[5-[(1R)-1-[5-(3-Chlorophenyl)-3-isoxazolyl]ethoxy]-4-methyl-4H-1,2,4-triazol-3-yl]pyridine]
adverse effect on kidneys [1]: not shown any adverse effect on kidneys | dissolution [2]: moderate | effect on TLESR/reflux ([3]; high dose of 13 mg (about 0.19 mg/kg), 2 to 3 hours after food-intake): some effect | side effects ([3]; high doses of 13 mg): Some serious side effects | effect on reflux ([3]; prior to food intake and at 1-2 hours after food intake): no significant effect

COc1cccc(C2(O)CCCCC2CN(C)C)c1 (stereo not drawn) [Tramadol]
pain killer effect in dogs [4]: do not occur

Reference: patent US12427140B2, “4-[5-[(rac)-1-[5-(3-chlorophenyl)-3-isoxazolyl]ethoxy]-4-methyl-4H-1,2,4-triazol-3-yl]pyridine for use in prevention and/or treatment of pain in an animal” (priority 2019, dated 2025)
